# Tests used:
# [1] = Local (cellular) toxicity in vitro, fluorescein assay; details: FS-TET disks at solubility limit (TET-HCl 20 mg/mL, TET free base 1 mg/mL)
# [2] = tested on: MDR isotype of S. aureus (ATCC 27659); assay: Agar diffusion zone of growth inhibition, antibiotics delivered from fibrin sealant; assay type: cell-based, Staphylococcus aureus; details: in vitro, 6 mm wells filled with fibrin sealant with antibiotic, 18 h at 37° C., FIG. 2
# Method: The method used was that of Barry,Am. Journal of Clinical Pathology, 53:149 (1970), incorporated herein by reference, with modifications. Briefly, antibiotic bioactivity was assessed by agar diffusion where the agar hydrogel was seeded with bacteria prior to solidification. Several 6 mm wells were cut into the agar, the plugs were removed by aspiration and the wells were filled with the fibrin sealant hydrogel containing various concentrations of low-solubility antibiotics. Cultures were incubated for 18 h at 37° C. Zones of growth inhibition—the area about the well where diffused antibiotic prevents growth of seeded bacteria—were recorded to the nearest mm and graphed in FIG. 2. The zone of inhibition required to document bacterial susceptibility to a particular concentration of antibiotic is indicated by a black horizontal bar. […] Moreover, increasing the local concentration of low solubility antibiotics released from fibrin sealant effectively overcomes S. aureus resistance in vitro.
# [3] = tested on: non-multi-drug resistant (NMDR) peritonitis; assay: Prophylactic protection against lethal NMDR peritonitis in mice; assay type: in vivo; details: prophylactic treatment, 500 mg/kg
structure (smiles),measurement,setting,value
CN(C)[C@@H]1C(=O)C(C(N)=O)=C(O)[C@@]2(O)C(=O)C3=C(O)c4c(O)cccc4[C@@](C)(O)[C@H]3C[C@@H]12.Cl [TET-HCl],"local (cellular) toxicity, fluorescein assay",[1],acutely toxic
[H]/N=C(/N)N[C@H]1[C@H](O)[C@@H](O)[C@H](O[C@@H]2O[C@@H](C)[C@](O)(C=O)[C@H]2O[C@@H]2O[C@@H](CO)[C@H](O)[C@@H](O)[C@@H]2NC)[C@@H](N/C(N)=N\[H])[C@@H]1O [streptomycin],growth inhibition (zone of growth inhibition),[2],appeared effective in vitro
CN(C)[C@@H]1C(O)=C(C(N)=O)C(=O)[C@@]2(O)C(O)=C3C(=O)c4c(O)cccc4[C@@](C)(O)[C@H]3C[C@@H]12 [tetracycline],protection against a lethal dose of NMDR peritonitis,[3],100%
